Results from patent US9115092B2, “Substituted quinazoline and pyrido-pyrimidine derivatives” (Asana Biosciences, LLC, priority 2010, dated 2015).

Key:
[1] = molecular target: T1, PI3Kα (wild-type), P110/P85α (Homo sapiens, UniProt P42336); experiment: PI3 Kinase TR-FRET assay, PI3Kα (wild-type); assay type: biochemical
T1 construct: made in house; host or cells: SF9 insect cells
Protocol: The ability of compounds of the invention to inhibit PI3K activity was determined in a homogeneous TR-FRET assay using a PI3K assay kit (Millipore, USA; cat #33-016) according to manufacturer's instructions. PI3-Kinases (isoforms α, β, γ and δ) catalyze the phosphorylation of phosphatidylinositol, PIP2 to PIP3 in the presence of ATP and Mg^2+. The PIP3 product is detected by displacement of biotin-PIP3 from an energy transfer complex consisting of Europium labeled anti-GST monoclonal antibody, a GST-tagged PH domain, biotinylated PIP3 and Streptavidin-APC. Excitation of Europium in the complex results in an energy transfer to the APC and a fluorescence emission at 665 nm. The PIP3 product displaces biotin-PIP3 from the complex resulting in a loss of energy transfer and thus a decrease in signal.
To test for the ability of compounds to inhibit the activity of PI3Kα (wild-type), exemplary compounds of formula (I) were dissolved in DMSO and directly distributed into 384-well plates at a volume of 0.5 μL. 14.5 μL of P110/P85α/PIP2 mixture in buffer (obtained from the Millipore kit) containing MgCl2 (40 mM) and DTT (5 mM) was added to compound wells and incubated for 60 min at room temperature. P110/P85α was expressed in SF9 insect cells and purified nickel column extraction. Five ng of wild-type P110/P85α was used in the assay. The kinase reaction was started by the addition of ATP. The assay concentrations of both PIP2 and ATP were 10 μM. The reaction mixture was incubated for 30 min at room temperature and was terminated by the addition of stop mix and detection mix. Fluorescence was measured at 615 and 665 nm upon excitation at 340 nm in a Victor™ V5 fluorometer (Perkin Elmer, USA). The fluorescence emission ratio at 665 to 615 nm, proportional to the kinase activity, was plotted against the compound concentration to generate dose-response curves and IC50 values were determined using GraphPad Prism® 5 software.

mTOR kinase = molecular target: T2, mTOR kinase (Homo sapiens, UniProt P42345); experiment: mTOR kinase TR-FRET assay; assay type: biochemical; conditions: read-out: mTO R
T2 construct: purchased Millipore, USA
Protocol: Compound inhibition for mTOR kinase was determined in a homogeneous TR-FRET assay using the Lance® ULight-p70 S6K (Thr 389) peptide (obtained from Perkin-Elmer). The ULight™-labeled synthetic peptide contains the amino acid residues surrounding Thr389 of human p70 S6K. The ULight-p70 S6K peptide is phosphorylated at Thr389 by mTOR. Phosphorylation motif: LGFTYVAP as substrate.
The compound dilution was carried out in 100% DMSO followed by a buffer dilution. The reaction buffer was HEPES (50 mM pH 7.5), EGTA (1 mM), MnCl2 (3 mM). Test compounds at various concentrations were pre-incubated with mTOR (Millipore, USA; 5 ng) for 60 min, and then the Lance® ULight-p70 S6K (Thr 389) peptide (50 nM) was added along with ATP (20 μM). After incubating the reaction mixture for 60 min at room temperature, the kinase reaction was terminated by the addition of EDTA (10 mM) followed by the addition of detection mix, i.e., 1 nM Eu-labeled anti-phospho-substrate antibody (Perkin Elmer, USA). The fluorescence emission at […] was measured upon excitation at 340 nm. IC50 values were subsequently determined using a sigmoidal dose-response curve (variable slope) in GraphPad Prism® 5 software.
Compounds of formula (I) caused inhibition of mTOR kinase activity as determined by this assay.

T1 sequence (P42336 whole entry): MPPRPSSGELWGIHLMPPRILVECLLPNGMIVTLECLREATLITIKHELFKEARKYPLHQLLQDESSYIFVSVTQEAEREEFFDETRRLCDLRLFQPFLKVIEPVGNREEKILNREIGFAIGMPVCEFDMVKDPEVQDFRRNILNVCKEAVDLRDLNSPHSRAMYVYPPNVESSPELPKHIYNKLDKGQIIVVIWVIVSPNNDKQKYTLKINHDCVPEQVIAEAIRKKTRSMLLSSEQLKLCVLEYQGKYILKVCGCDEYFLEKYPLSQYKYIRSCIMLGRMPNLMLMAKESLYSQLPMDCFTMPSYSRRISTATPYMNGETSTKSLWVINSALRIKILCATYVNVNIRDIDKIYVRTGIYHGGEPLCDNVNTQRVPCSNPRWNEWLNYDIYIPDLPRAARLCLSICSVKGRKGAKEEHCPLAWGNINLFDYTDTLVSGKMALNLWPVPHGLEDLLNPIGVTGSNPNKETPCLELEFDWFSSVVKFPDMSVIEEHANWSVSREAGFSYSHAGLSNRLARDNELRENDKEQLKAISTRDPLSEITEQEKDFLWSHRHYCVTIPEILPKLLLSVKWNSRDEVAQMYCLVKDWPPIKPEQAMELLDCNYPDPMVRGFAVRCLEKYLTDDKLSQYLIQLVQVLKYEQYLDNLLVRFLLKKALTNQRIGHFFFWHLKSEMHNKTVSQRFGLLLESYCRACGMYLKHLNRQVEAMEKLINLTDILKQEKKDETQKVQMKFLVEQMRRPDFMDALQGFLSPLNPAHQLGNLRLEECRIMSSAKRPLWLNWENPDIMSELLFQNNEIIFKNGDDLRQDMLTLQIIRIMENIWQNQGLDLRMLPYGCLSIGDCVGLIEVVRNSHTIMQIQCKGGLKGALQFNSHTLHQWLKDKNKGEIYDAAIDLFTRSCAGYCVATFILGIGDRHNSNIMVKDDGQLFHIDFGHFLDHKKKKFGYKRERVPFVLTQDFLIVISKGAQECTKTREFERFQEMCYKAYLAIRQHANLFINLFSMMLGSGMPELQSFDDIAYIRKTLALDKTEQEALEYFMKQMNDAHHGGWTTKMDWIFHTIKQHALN
T1 sequence (P27986 whole entry partner): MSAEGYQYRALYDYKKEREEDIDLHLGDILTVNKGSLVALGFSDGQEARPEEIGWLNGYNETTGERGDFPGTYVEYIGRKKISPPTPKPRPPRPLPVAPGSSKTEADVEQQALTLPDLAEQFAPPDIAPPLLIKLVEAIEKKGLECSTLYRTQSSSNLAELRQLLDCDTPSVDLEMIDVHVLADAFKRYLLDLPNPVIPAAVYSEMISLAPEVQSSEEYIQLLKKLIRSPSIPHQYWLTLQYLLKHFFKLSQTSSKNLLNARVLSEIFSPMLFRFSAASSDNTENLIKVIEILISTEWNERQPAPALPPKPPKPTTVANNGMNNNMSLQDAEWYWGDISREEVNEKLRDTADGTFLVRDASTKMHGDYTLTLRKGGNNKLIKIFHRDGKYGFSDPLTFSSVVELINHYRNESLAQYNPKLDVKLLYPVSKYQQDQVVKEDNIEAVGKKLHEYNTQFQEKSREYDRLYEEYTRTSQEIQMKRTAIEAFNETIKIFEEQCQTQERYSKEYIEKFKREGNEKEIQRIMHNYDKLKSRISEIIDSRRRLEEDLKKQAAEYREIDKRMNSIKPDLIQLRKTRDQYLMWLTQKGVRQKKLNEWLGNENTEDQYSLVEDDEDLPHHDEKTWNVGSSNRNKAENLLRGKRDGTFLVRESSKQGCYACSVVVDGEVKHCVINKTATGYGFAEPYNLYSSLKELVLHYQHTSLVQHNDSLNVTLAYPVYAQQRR

Row | SMILES | IC50 [1] [nM] | IC50 (mTOR kinase) [nM]
1 | CN(C)C(=O)c1ccc(NC(=O)Nc2ccc(-c3nc(N4CCOCC4)c4ncc(-c5cncnc5)cc4n3)cc2)c(F)c1 [Example 154, 3-fluoro-N,N-dimethyl-4-(3-(4-(4-morpholino-7-(pyrimidin-5-yl)pyrido[3,2-d]pyrimidin-2-yl)phenyl)ureido)-benzamide] | < 50 | < 50
2 | COc1ncc(-c2cnc3c(N4CCOCC4)nc(-c4ccc(NC(=O)Nc5ccc(C(=O)N(C)C)cc5F)cc4)nc3c2)cn1 [Example 157, 3-fluoro-4-(3-(4-(7-(2-methoxypyrimidin-5-yl)-4-morpholino-pyrido[3,2-d]pyrimidin-2-yl)phenyl)ureido)-N,N-dimethyl-benzamide] | < 50 | < 50
3 | CN1CCN(C(=O)c2ccc(NC(=O)Nc3ccc(-c4nc(N5CCOCC5)c5ccc(-c6ccco6)cc5n4)cc3)cc2)CC1 [Example 158, 1-(4-(7-(furan-2-yl)-4-morpholino-quinazolin-2-yl)phenyl)-3-(4-(4-methylpiperazine-1-carbonyl)phenyl)urea] | < 50 | 50 to 200
4 | Cc1ccc(-c2ccc3c(N4CCOCC4)nc(-c4ccc(NC(=O)Nc5ccc(C(=O)N(C)C)cc5)cc4)nc3c2)cn1 [Example 161, N,N-dimethyl-4-(3-(4-(7-(6-methylpyridin-3-yl)-4-morpholino-quinazolin-2-yl)phenyl)ureido)-benzamide] | < 50 | < 50
5 | Cc1ncccc1-c1ccc2c(N3CCOCC3)nc(-c3ccc(NC(=O)Nc4ccc(C(=O)N(C)C)cc4F)cc3)nc2c1 [Example 167, 3-fluoro-N,N-dimethyl-4-(3-(4-(7-(2-methylpyridin-3-yl)-4-morpholino-quinazolin-2-yl)phenyl)ureido)-benzamide] | < 50 | < 50
6 | CN(C)C(=O)c1ccc(NC(=O)Nc2ccc(-c3nc(N4CCOCC4)c4ccc(-c5ccccn5)cc4n3)cc2)c(F)c1 [Example 168, 3-fluoro-N,N-dimethyl-4-(3-(4-(4-morpholino-7-(pyridin-2-yl)quinazolin-2-yl)phenyl)ureido)-benzamide] | < 50 | < 50
7 | COc1ccc(-c2ccc3c(N4CCOCC4)nc(-c4ccc(NC(=O)Nc5ccc(C(=O)N(C)C)cc5F)cc4)nc3c2)cn1 [Example 170, 3-fluoro-4-(3-(4-(7-(6-methoxypyridin-3-yl)-4-morpholino-quinazolin-2-yl)phenyl)ureido)-N,N-dimethyl-benzamide] | < 50 | 50 to 200
8 | CN(C)C(=O)c1ccc(NC(=O)Nc2ccc(-c3nc(N4CCOCC4)c4ccc(-c5ccco5)cc4n3)cc2)c(Cl)c1 [Example 171, 3-chloro-4-(3-(4-(7-(furan-2-yl)-4-morpholino-quinazolin-2-yl)phenyl)ureido)-N,N-dimethyl-benzamide] | 201 to 10000 | 201 to 10000
9 | CN(C)C(=O)c1ccc(NC(=O)Nc2ccc(-c3nc(N4CCOCC4)c4cc(F)c(-c5cncnc5)cc4n3)cc2)c(F)c1 [Example 174, 3-fluoro-4-(3-(4-(6-fluoro-4-morpholino-7-(pyrimidin-5-yl)quinazolin-2-yl)phenyl)ureido)-N,N-dimethyl-benzamide] | 50 to 200 | < 50
10 | CN(C)C(=O)c1ccc(NC(=O)Nc2ccc(-c3nc(N4CCOCC4)c4cc(F)c(-c5cncnc5)cc4n3)cn2)cc1 [Example 176, 4-(3-(5-(6-fluoro-4-morpholino-7-(pyrimidin-5-yl)quinazolin-2-yl)pyridin-2-yl)ureido)-N,N-dimethyl-benzamide] | < 50 | 50 to 200

Other lines, results leading:

Row | IC50 [1] [nM] | IC50 (mTOR kinase) [nM] | SMILES
11 | 50 to 200 | 50 to 200 | CN(C)C(=O)c1ccc(NC(=O)Nc2ccc(-c3nc(N4CCOCC4)c4ccc(-c5ccccn5)cc4n3)cc2F)cc1 [Example 156, 4-(3-(2-fluoro-4-(4-morpholino-7-(pyridin-2-yl)quinazolin-2-yl)phenyl)ureido)-N,N-dimethyl-benzamide]
12 | < 50 | < 50 | Cc1nn(C)c(C)c1-c1ccc2c(N3CCOCC3)nc(-c3ccc(NC(=O)Nc4ccc(C(=O)N(C)C)cc4)cc3)nc2c1 [Example 162, N,N-dimethyl-4-(3-(4-(4-morpholino-7-(1,3,5-trimethyl-1H-pyrazol-4-yl)quinazolin-2-yl)phenyl)ureido)-benzamide]
13 | < 50 | < 50 | COc1ncccc1-c1ccc2c(N3CCOCC3)nc(-c3ccc(NC(=O)Nc4ccc(C(=O)N(C)C)cc4)cc3)nc2c1 [Example 163, 4-(3-(4-(7-(2-methoxypyridin-3-yl)-4-morpholino-quinazolin-2-yl)phenyl)ureido)-N,N-dimethyl-benzamide]
14 | < 50 | < 50 | CN(C)C(=O)c1ccc(NC(=O)Nc2ccc(-c3nc(N4CCOCC4)c4ccc(-c5cncc(F)c5)cc4n3)cc2)cc1 [Example 164, 4-(3-(4-(7-(5-fluoropyridin-3-yl)-4-morpholino-quinazolin-2-yl)phenyl)ureido)-N,N-dimethyl-benzamide]
15 | < 50 | < 50 | Cc1ncccc1-c1ccc2c(N3CCOCC3)nc(-c3ccc(NC(=O)Nc4ccc(C(=O)N(C)C)cc4)cc3)nc2c1 [Example 165, N,N-dimethyl-4-(3-(4-(7-(2-methylpyridin-3-yl)-4-morpholino-quinazolin-2-yl)phenyl)ureido)-benzamide]
16 | < 50 | < 50 | Cc1ccc(-c2ccc3c(N4CCOCC4)nc(-c4ccc(NC(=O)Nc5ccc(C(=O)N(C)C)cc5F)cc4)nc3c2)cn1 [Example 166, 3-fluoro-N,N-dimethyl-4-(3-(4-(7-(6-methylpyridin-3-yl)-4-morpholino-quinazolin-2-yl)phenyl)ureido)-benzamide]
17 | < 50 | < 50 | COc1ccncc1-c1ccc2c(N3CCOCC3)nc(-c3ccc(NC(=O)Nc4ccc(C(=O)N(C)C)cc4)cc3)nc2c1 [Example 169, 4-(3-(4-(7-(4-methoxypyridin-3-yl)-4-morpholino-quinazolin-2-yl)phenyl)ureido)-N,N-dimethyl-benzamide]
18 | < 50 | 201 to 10000 | CN(C)C(=O)c1ccc(NC(=O)Nc2ccc(-c3nc(N4CCOCC4)c4ccc(-c5cnn(C)c5)cc4n3)cn2)c(F)c1 [Example 172, 3-fluoro-N,N-dimethyl-4-(3-(5-(7-(1-methyl-1H-pyrazol-4-yl)-4-morpholino-quinazolin-2-yl)pyridin-2-yl)ureido)-benzamide]
19 | < 50 | < 50 | CN(C)C(=O)c1ccc(NC(=O)Nc2ccc(-c3nc(N4CCOCC4)c4cc(F)c(-c5cccnc5)cc4n3)cc2)c(F)c1 [Example 173, 3-fluoro-4-(3-(4-(6-fluoro-4-morpholino-7-(pyridin-3-yl)quinazolin-2-yl)phenyl)ureido)-N,N-dimethyl-benzamide]
20 | < 50 | 50 to 200 | CN(C)C(=O)c1ccc(NC(=O)Nc2ccc(-c3nc(N4CCOCC4)c4cc(F)c(-c5cccnc5)cc4n3)cn2)cc1 [Example 175, 4-(3-(5-(6-fluoro-4-morpholino-7-(pyridin-3-yl)quinazolin-2-yl)pyridin-2-yl)ureido)-N,N-dimethyl-benzamide]
21 | < 50 | < 50 | CN(C)C(=O)c1ccc(NC(=O)Nc2ccc(-c3nc(N4CCOCC4)c4ccc(-c5ccc(N)nc5)cc4n3)cc2)cc1 [Example 177, 4-(3-(4-(7-(6-aminopyridin-3-yl)-4-morpholino-quinazolin-2-yl)phenyl)ureido)-N,N-dimethyl-benzamide]
22 | 50 to 200 | < 50 | CN(C)C(=O)c1ccc(NC(=O)Nc2ccc(-c3nc(N4CCOCC4)c4ccc(-c5ccc(N)nc5)cc4n3)cc2)c(F)c1 [Example 178, 4-(3-(4-(7-(6-aminopyridin-3-yl)-4-morpholino-quinazolin-2-yl)phenyl)ureido)-3-fluoro-N,N-dimethyl-benzamide]
